From patent US4269848A, “5-Substituted indan-2-carboxylic acid and functional derivatives” (Lipha, Lyonnaise Industrielle Pharmaceutique, priority 1976, dated 1981) come the findings set out here.

Series [1] relates to spasms of pain caused by the intraperitoneal injection of a solution of acetic acid. Put plainly: Analgesic activity, acetic acid induced spasms of pain (Koster et al.). Conditions: mouse, oral; dose reducing spasms of pain by 50%; read-out: AD50, Acetic Acid. It is filed as in vivo. On the procedure:
B--Analgesic activity in the mouse was determined by the method of Koster et al. (Fed. Proc. 1959, Vol. 18, page 412). The active dose 50 (AD50) value for various compounds in accordance with the present invention was determined, namely, that dose which, when administered orally, reduces by 50% the spasms of pain caused by the intraperitoneal injection of a solution of acetic acid.

Series [2] relates to platelets. As to the kind of experiment: In vitro inhibition of platelet aggregation induced by collagen (Born). It is filed as cell-based. Conditions: read-out: minimal active concentration, Platelet Aggregation Induced By Collagen. How it is done:
E--The anti-inflammatory activity was also determined by the aggregation-inhibiting effect of the compounds in accordance with the present invention, in vitro, on platelets the aggregation of which was induced by collagen, in accordance with the method of Born (Journal of Physiology, 1962, Vol. 162, page 67). It is known that compounds which inhibit the activity or quantity of prostaglandin synthetase will inhibit the formation of prostaglandin PGE2 and the inflammatory and pyretic effect thereof. Since prostaglandin PGE2 also causes an increase in platelet aggregation, this test is an effective indication of anti-inflammatory and anti-pyretic activity due to inhibition of prostaglandin synthetase.

Series [3] has as its system erythema produced by ultra violet radiation. As to the kind of experiment: Protective effect against erythema from ultra violet radiation (Winder et al.). It is filed as in vivo, albino guinea pigs. Conditions: Cavia porcellus; albino guinea pig, oral; amount reducing erythema by 50%; read-out: AD50, U.V. On the procedure: D--The protective effect against inflammation resulting from exposure to radiation was determined in albino guinea pigs using the method of Winder et al (Arch. Inv. Pharmacodyn. 1958, Vol. 116, page 261). The AD50 value was determined for the test substance, namely the amount which, when administered to the animal orally, reduced by 50% the erythema produced by exposing the shaved dorsal skin of the guinea pig to ultra violet radiation.

Series [4] in a line: Experiment A: clinical case studies, anti-inflammatory activity, oral administration. It is filed as in vivo. On the procedure:
The following clinical experimentation was carried out to clinically test various compounds in accordance with the present invention for their anti-inflammatory, analgesic and platelet aggregation or clumping inhibition activites. […] Diagonsis: Seropositive, classic, rheumatoid polyarthritis, radioclinical stage IV Treatment: 600 mg/day for 3 weeks Diagnosis: Ankylosing spondylarthrittis with signs of peripheral joint inflammation Treatment: 600 mg/day for 3 weeks Diagnosis: Psoriatic peripheral rheumatism Treatment: 600 mg/day for 15 days

The nature of series [5]: Acute toxicity, LD 50 (oral route), mice. Conditions: mouse, in vivo. The text has this: A--The substances are of low toxicity. For example, the LD 50 value (oral route), determined in mice, of various compounds in accordance with the present invention are shown in column A of Table I.
Series [6] relates to carrageenin-induced edema. Put plainly: Anti-inflammatory activity, carrageenin-induced edema test (Winter et al.). It counts as in vivo. Conditions: rat, oral; dose inhibiting edema by 30%; read-out: AD30, Carrageenin. An excerpt:
The protection afforded, by oral administration of the compound to a rat against edema induced by injecting a suspension of carrageenin under the arch of the foot of the animal was investigated. The AD30 dose is that which inhibits the edema by 30%.
In general terms: In the carrageenan paw model, swelling and tenderness develop within hours.

Series [7] concerns platelet aggregation. As to the kind of experiment: Experiment C: clinical case studies, platelet anti-aggregation activity, oral administration. It counts as in vivo. How it is done:
(§1) The following clinical experimentation was carried out to clinically test various compounds in accordance with the present invention for their anti-inflammatory, analgesic and platelet aggregation or clumping inhibition activites.
The following case studies relate to the platelet anti-aggregation activity associated with the oral administration of 2'-(N,N-diethylaminoethyl) 5-(2'-thenoyl)-indan-2-carboxylate.

Series [8] can be described thus: Experiment B: clinical case studies, analgesic activity, oral administration. It is filed as in vivo. Conditions: for Tolerance, Biological / Tolerance, Clinical: NAD = Nothing Abnormal Discovered. How it is done: as §1
The following case studies relate to the analgesic activity associated with the oral administration of methyl 5-(4'-dimethylaminobenzoyl)-indan-2-carboxylate.
Diagnosis: Painful episode against a background of arthrosis of the cervical spine
Treatment: 600 mg/day for 3 weeks
Diagnosis: Pains in the right hip when pressure applied, secondary to aseptic osteonecrosis
Treatment: 600 mg/day for 15 days
Diagnosis: Arthrosis of the right hip resembling Paget's Disease

[9] abbreviates: Case 1, oral 600 mg/day for 3 weeks.
Setting [10] is: Case 1, rheumatoid polyarthritis, oral 600 mg/day for 3 weeks.
Where [11] appears, read: Case 2, ankylosing spondylarthritis, oral 600 mg/day for 3 weeks.
Setting [12] is: Case 3, oral 600 mg/day for 15 days.
Where [13] appears, read: Case 3, psoriatic peripheral rheumatism, oral 600 mg/day for 15 days.
[14] abbreviates: Case 1, oral 200 mg, before treatment 100%.
[15] abbreviates: Case 2, oral 200 mg, before treatment 100%.
Setting [16] is: Case 3, oral 200 mg, before treatment 100%.
Setting [17] is: Case 1, arthrosis of the cervical spine, oral 600 mg/day for 3 weeks.
Setting [18] is: Case 2, hip pain secondary to aseptic osteonecrosis, oral 600 mg/day for 15 days.
[19] abbreviates: Case 2, oral 600 mg/day for 15 days.
Where [20] appears, read: Case 3, arthrosis of the right hip, oral 600 mg/day for 15 days.

`Cc1ccc(C(=O)c2ccc3c(c2)CC(C(=O)O)C3)s1` (stereo not drawn) [5-(5'-Methyl-2'-thenoyl)-indan-2-carboxylic acid]: in series [1], the ED50 turned out to be 12 mg/kg. Moreover, the minimal effective concentration in series [2] came out at 1 µg/mL. Further, the ED50 in series [3] turned out to be 14 mg/kg. Moreover, the Tolerance entry in series [4] (setting [9]) was “Very good clinical and biological tolerance”. In addition, in series [4] (setting [10]), the Conclusion entry is “Good result”, the “erythrocyte sedimentation rate (ESR)” value is reported as “decrease”, the mobility result is listed as “Improved mobility” and the morning stiffness entry is given as “Decrease”. Moreover, the peripheral pain entry in series [4] (setting [10]) was “Decrease”. In series [4] (setting [11]), the Conclusion result was “Good result”, the analgesic effect result was “Good analgesic effect”, the articular perimeters entry is “decrease in articular perimeters” and the “effectiveness compared with phenylbutazone” value was “As effective as phenylbutazone”. Also, in series [4] (setting [11]), the mobility result is “Good mobility”. Besides, the Tolerance entry in series [4] (Case 2, oral 600 mg/day for 3 weeks) was “Good clinical and biological tolerance”. Further, the Tolerance entry in series [4] (setting [12]) was “Good clinical and biological tolerance”. In series [4] (setting [13]), the Conclusion result is “Very good result”, the articular perimeter entry was “decrease in articular perimeter”, the local heat entry is listed as “decrease in local heat” and the morning pain result is given as “Decrease in morning pain”. For the same compound, the LD50 (usually the dose expected to kill half of the subjects tested) in series [5] turned out to be 3000 mg/kg. Besides, the ED30 in series [6] came out at 7.5 mg/kg.
For `CCN(CC)CCOC(=O)C1Cc2ccc(C(=O)c3cccs3)cc2C1` (stereo not drawn) [2'-(N,N-diethylaminoethyl) 5-(2'-thenoyl)-indan-2-carboxylate], the “second phase of aggregation with ADP” value in series [7] (Case 1, oral 200 mg) is “Inhibition”; in series [7] (Case 2, oral 200 mg), 0%; in series [7] (Case 3, oral 200 mg), “Inhibition”. Also, the “Aggregation with collagen, 1 h after taking 200 mg” value in series [7] (setting [14]) is on record as 0%; in series [7] (setting [15]), 10%; in series [7] (setting [16]), 0%. In addition, the “Aggregation with collagen, 3 h after taking 200 mg” value in series [7] (setting [14]) is recorded as 0%; in series [7] (setting [15]) it was 10%; in series [7] (setting [16]), 0%. Moreover, the “Aggregation with collagen 24 hours after the last dose” value in series [7] (Case 1, oral, 24 h after last dose, before treatment 100%) was 10%. Further, the “Aggregation with collagen 24 hours after last dose” value in series [7] (Case 2, oral, 24 h after last dose, before treatment 100%) came out at 15%; in series [7] (Case 3, oral, 24 h after last dose, before treatment 100%), 0%.
Regarding `COC(=O)C1Cc2ccc(C(=O)c3ccc(N(C)C)cc3)cc2C1` (stereo not drawn) [Methyl 5-(4'-dimethylaminobenzoyl)-indan-2-carboxylate], the ED50 in series [1] came out at 2.5 mg/kg; in series [3] it was 24 mg/kg. Further, the minimal effective concentration in series [2] turned out to be 0.25 µg/mL. For the same compound, the LD50 in series [5] worked out at 1450 mg/kg. The Conclusion result in series [8] (setting [17]) is listed as “Good result”; in series [8] (setting [18]), “Very good result”; in series [8] (setting [20]) it was “Good result”. The Length of relief amounted to 4 h in series [8] (setting [17]), 4 h in series [8] (setting [18]) and 2 h in series [8] (setting [20]). For the same compound, the “Time taken to relieve pain” value in series [8] (setting [17]) came out at 30 min. The “Tolerance, Biological” value in series [8] (setting [9]), in series [8] (setting [19]) and in series [8] (setting [12]) was “NAD” each time. Besides, the “Tolerance, Clinical” value was “NAD (Nothing Abnormal Discovered)” in series [8] (setting [9]), “NAD” in series [8] (setting [19]) and “NAD” in series [8] (setting [12]). The “Time to relieve pain” value is “less than 15 minutes” in series [8] (setting [18]) and 30 min in series [8] (setting [20]). Besides, the ED30 in series [6] was found to be 12 mg/kg.
